Laboratory results published in PubChem BioAssay AID179 (DTP/NCI, 2004).
Calls of active or inactive are those of the source.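 The calls were made as follows: active = compounds giving half or more protection of infected cells from virus-caused growth loss, again on retest; inactive = the rest.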

Tested on: CEM cells HIV-1 protection, formazan growth assay
Assay: NCI AIDS Antiviral Assay
Settings: for IC50: measured here: growth of uninfected CEM cells
In short: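 Steps: treat uninfected and HIV-1-infected human CEM cells at five drug levels; quantify growth by soluble formazan; retest any compound reaching 50% protection; classify actives from the retest.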

Structure (SMILES)	EC50	IC50	outcome
COc1ccc(/C(=C/n2ccnc2)C(O)c2ccc(OC)c(OC)c2)cc1OC (stereo not given)	> 126 µM	> 126 µM	
c1sc(NC2=NCCO2)c2c1CCCC2	> 200 µM	166 µM	
COc1cc2c(cc1OC)C(Cl)C(c1ccc(F)cc1)=C2Cl (stereo not given)			inactive
COC(=O)Cc1cc(OC)c(OC)cc1Br	> 631 µM	513 µM	
Cc1c(/C=N/N(C)C)oc2c1cc(O)c1ncccc12	> 37.2 µM	2.51 µM	
COC12OCCN(C)C1=CC(=O)C1=NNC(C)C12 (stereo not given)			inactive
C=C(C(=O)O)C1CCC(CC/C=C(\C)CC/C=C(\C)CCC=C(C)C)CO1 (stereo not given)	> 200 µM	6.17 µM	
COC(CN(C)C(=O)C(C)NC(=O)c1ccccc1)OC (stereo not given)			inactive
COc1cc2c(cc1O)C1C(O2)c2cc3c(cc2OC1(C)C)OC(C)(C)CC3 (stereo not given)	> 200 µM	28.8 µM	
Fc1ccc(C2(CCCN3CCc4[nH]c5cc(F)ccc5c4C3)OCCO2)cc1	> 200 µM	18.6 µM	
CC/C(=C/OC)P1(=O)OC(C)(C)CN1C(C)(C)C (stereo not given)	> 200 µM	151 µM	
Cc1cccc2c1CC1(Cc3c(C)cccc3C1=O)C2=O	> 200 µM	> 200 µM	
CCOC(=O)c1nc2ccc(C(F)(F)F)cc2[nH]c1=O	> 200 µM	> 200 µM	
CC(=O)/C(=C/n1ccc(=O)[nH]c1=S)C(=O)Nc1ccccc1C	> 200 µM	> 200 µM	
CCOC(=O)CCCN(c1[nH]c(C)c(C)c1C#N)S(=O)(=O)c1ccc(C)cc1	> 200 µM	81.3 µM	
CC(=O)NC(NNC(NC(C)=O)(c1ccccc1)c1ccccc1)(c1ccccc1)c1ccccc1	> 200 µM	> 200 µM	
O=C(O)c1ccc2c[n+]3ccccc3cc2c1	> 427 µM	> 427 µM	
CC(C)(C)[Si](C)(C)OC[C@@H](NC(=O)OCc1ccccc1)C(=O)O	> 200 µM	> 200 µM	
COc1ccc(C2SC(=S)N(c3ccc(Cl)cc3)N2c2ccc(Cl)cc2)cc1 (stereo not given)	> 200 µM	24 µM	
C=C=C(CC1CCCCC1=O)S(=O)(=O)c1ccccc1 (stereo not given)	> 200 µM	6.46 µM	
COc1ccc2c(=O)c3ccccc3oc2c1	> 200 µM	97.7 µM	

Structure (SMILES)	EC50	IC50	outcome
[O-][n+]1onc2c1/C(=N/O)CCC2	> 200 µM	> 200 µM	
C=C1CN(S(=O)(=O)c2ccc(C)cc2)CCCN(CCC(C)C)CCCN(S(=O)(=O)c2ccc(C)cc2)C1	> 200 µM	1.02 µM	
CC1(CO)C2CC3CN(C(=O)c4ccccc4)C(C2)[C@]31C (stereo not given in full)			inactive
CCCCN(CCCC)c1cc(=O)nc2ccccn12	> 200 µM	> 200 µM	
CC(C)C[P+](c1ccccc1)(c1ccccc1)c1ccccc1	> 20 µM	2.19 µM	
Cc1cc(N=Nc2ccc(Sc3ccc(N=Nc4ccc(O)c(C(=O)O)c4)cc3)cc2)c(N)c(N=Nc2ccc(C(=O)O)cc2)c1N	> 200 µM	27.5 µM	
COC(=O)c1c(C)cc(OC(=O)c2c(C)cc(O)c(/C=N\O)c2O)c(C)c1O	> 151 µM	9.77 µM	
COc1c2c(c3c(c1C1OC(C)[C@@H](C)O1)CC(C)(C)O3)C(=O)c1ccccc1C2=O (stereo not given in full)	> 63.1 µM	> 63.1 µM	
COc1ccc(C(=O)Cn2c(C(C)=O)nc3ccccc32)cc1	> 200 µM	2.45 µM	
CC(=O)Nc1ccc2c(c1)nc1c3ccccc3ccn21	> 200 µM	29.5 µM	
COc1cc2c(cc1OC)[N+]1(C)CCC3OCCC4C[N+]5(C)CCC26C5CC4C3C61 (stereo not given)	> 372 µM	> 372 µM	
N#CCCn1c(CCC(=O)Nc2ccc(Cl)cc2Cl)n[nH]c1=S	66.1 µM	97.7 µM	
CCOC(=O)C1(C)CCCc2sc(N)c(C#N)c21 (stereo not given)	> 200 µM	> 200 µM	
C=C(C(=O)C(=O)Oc1ccc(Cl)cc1)C(=O)c1ccc(C)cc1	> 79.4 µM	> 79.4 µM	
O=C(O)C(=Cc1ccc([N+](=O)[O-])cc1)C(=O)O	> 1050 µM	550 µM	
[O-]c1c(-c2ccccc2)[se]c(-c2ccccc2)[n+]1-c1ccccc1			inactive
NC(=O)C(N)(c1ccccc1)c1ccccc1			inactive
CCCC(=O)O[C@H]1[C@@H](OC(C)=O)C/C(C)=C\[C@@H]2OC(=O)[C@]3(C)OC23[C@@H](O)C2C3(C)OC3CC(OC(C)=O)[C@@]21C (stereo not given in full)	> 117 µM	32.4 µM	
CCCCCCCCC(=O)NCCN(CCN)C(=O)CCCCCCCC	> 100 µM	5.5 µM	
O=C(O)c1ccc(C2COc3ccc(Cl)cc3C2)cc1 (stereo not given)	> 174 µM	105 µM	
COc1ccc(-c2c(C#N)c(S)n(NS(=O)(=O)c3ccccc3)c(=O)c2C#N)cc1	> 200 µM	12.6 µM	

Structure (SMILES)	EC50	IC50	outcome
CC(=O)N1c2ccccc2C2=CC3C4C(=O)N(c5ccccc5)C(=O)C4C21C1C(=O)N(c2ccccc2)C(=O)C31 (stereo not given)			inactive
COc1ccc(C(=CCC(C)C2CCC3[C@@H]4C(OC(C)=O)CC5CC(OC(C)=O)CC[C@]5(C)C4CC(OC(C)=O)[C@]23C)c2ccc(OC)cc2)cc1 (stereo not given in full)	> 200 µM	95.5 µM	
CN1CCC(OC(c2ccccc2)c2ccc(Cl)cc2)C1 (stereo not given)			inactive
CCOC(=O)c1ccc(N2N=NC3C4CC(C5CCCC54)C32)cc1 (stereo not given)	> 200 µM	> 200 µM	
CCN(CC)c1ccc2c(c1)Oc1cc(N(CC)CC)ccc1C21c2ccccc2C(=O)N1c1ccccc1	> 200 µM	> 200 µM	
O=C(C1C(c2ccccc2)N1C(c1ccccc1)c1ccccc1)C1C(c2ccccc2)N1C(c1ccccc1)c1ccccc1 (stereo not given)	> 3.39 µM	> 3.39 µM	
CNc1ccccc1S(=O)(=O)c1cc(Cl)ccc1OC	151 µM	> 200 µM	
CN(C)c1ccc(C(c2c(O)c3ccc(O)cc3oc2=O)c2c(O)c3ccc(O)cc3oc2=O)cc1	> 200 µM	30.2 µM	
O=C1OC(=O)C2C3CC(C4N=NN(c5ccccc5)C34)C12 (stereo not given)	> 200 µM	> 200 µM	
COC1/C=C/OC2(C)Oc3c(C)c(O)c4c(O)c(c(C5SCCS5)c(O)c4c3C2=O)NC(=O)/C(C)=C\C=C\C(C)C(O)C(C)C(O)C(C)C(O)C1C (stereo not given)	> 200 µM	1 µM	
CCCC12C(C(=O)OC)C(=O)C(C(=O)OC)C1(C)C(C(=O)OC)C(=O)C2C(=O)OC (stereo not given)	> 138 µM	97.7 µM	
COc1c(OC(C)=O)cc2c(OC(C)=O)c1CC(C)CC(OC)C(O)C(C)/C=C(\C)C(OC(N)=O)C(OC)/C=C\C=C(/C)C(=O)N2 (stereo not given)	> 195 µM	3.02 µM	
COc1cc(C(c2cc3c(cc2O)OCO3)N2CCCC2)cc(OC)c1OC (stereo not given)	> 200 µM	7.76 µM	
COc1cc2c(cc1OC)C13CCN4CC5=CCOC6CC(=O)N2C1C6C5C4C3 (stereo not given) (tested in a mixture with another compound)	> 209 µM		
COc1ccc(Nc2c(C#N)c3n(c4ccccc24)c2ccccc2[n+]3C)cc1OC	> 200 µM	3.09 µM	
COc1ccc(C(=O)Sc2ccccc2C(=O)Nc2ccc(S(=O)(=O)NC(C)=O)cc2)cc1	22.4 µM	> 100 µM	
O=C(CCC(=O)Nc1ccc(Cl)c(Cl)c1)CC(=O)c1ccc(F)cc1	> 67.6 µM	> 67.6 µM	
CC(NO)/C(=N/O)c1ccco1 (stereo not given)	> 200 µM	> 200 µM	
Cc1ccc(SSc2ccc([N+](=O)[O-])cc2)cc1	> 200 µM	9.55 µM	
CSc1n[nH]c(NC(=O)c2cccc(C(F)(F)F)c2)n1	> 44.7 µM	> 44.7 µM	
